Experimental data from PubChem BioAssay AID449764 (Southern Research Specialized Biocontainment Screening …, 2010).
pIC50: −log10 of the molar value.

Tested on: Mycobacterium tuberculosis H37Rv growth inhibition, no glycerol
Assay: Mycobacterium tuberculosis H37Rv growth inhibition, no glycerol, confirmatory dose response (AID 449764);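 also: growth read after 7 days of incubation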
Conditions: for IC90: measured here: IC90 growth inhibition

| SMILES | pIC50 | IC90 [µM] |
| --- | --- | --- |
| Cc1nc2ccccc2c2nc3ccccc3n12 | 4.51 | 48.4 |
| CCCCn1nc(C(=O)N[C@@H](CCSC)c2nc3ccccc3[nH]2)c2ccccc2c1=O | 4.33 | > 100 |
| CC(C)OC(=O)CCCCCN1C(=O)CSC1=S | 4.94 | 19.2 |
| O=C(COC(=O)C1=COCCO1)NCc1ccc(Cl)cc1 | 4.55 | > 100 |
| COC(=O)[C@H](CC(C)C)NC(=O)c1cc2c(cn1)[nH]c1ccccc12 | 4.70 | 39.8 |
| NN(Cc1ccccc1)C(=S)Nc1ccc(Cl)c(Cl)c1 | 4.60 | 39.4 |
| CN(C(=O)COC(=O)c1sc2ccccc2c1Cl)C1CCCCC1 | 5.02 | 14.2 |
| CCCCCNc1nc(N2CCCC2)c2c(c1C#N)CCN(C)C2 | – | > 100 |
| CCOC(=O)N/N=C(/C)c1ccc([N+](=O)[O-])o1 | 4.37 | > 100 |
| O=C(O)c1[nH]c(=O)[nH]c(=O)c1F | 5.26 | 14.1 |
| CCCCC(=O)OCC(=O)N1N=C(c2c[nH]c3ccccc23)C(O)C1c1ccc(OC)cc1 (configuration not stated) | 4.66 | 25.1 |
| CCOC(=O)COc1ccc2c(c1)C(=O)CC(C)(c1cccnc1)O2 (configuration not stated) | 4.87 | 32.5 |
| CC1(C)OC(=O)C(=Cc2ccc[nH]2)C(=O)O1 | > 6.70 | > 100 |
| CCOc1ccc(-c2cnc(NCc3cccc4ccccc34)n2CCOC)cc1 | 5.15 | 11 |
| Cc1ccc(C(=O)N/C(=C/c2ccco2)C(=O)OCN2C(=O)c3ccccc3C2=O)cc1 | 4.79 | 40.4 |
| O=C(CSc1nnnn1-c1ccc2c(c1)OCCO2)OC1CCCCC1 | 4.64 | 25.7 |
| Cn1c(=O)n(Cc2ccccc2)c(=O)c2c1nc1n2CCCN1C1CCCCC1 | – | > 100 |
| Cc1ccc(C(=O)C[n+]2cc(-c3ccc(C)cc3)n3c2CCCCC3)cc1 | 4.65 | 25.4 |
| CCCCCc1ccc(-c2cn(Cc3cccc(OC)c3)nn2)cc1 | 4.41 | > 100 |
| Cc1cc(C)c2cc(C(=O)Nc3ccc(C)c(F)c3)[nH]c2c1 | 5.88 | 1.91 |
| COc1ccc(N/C=C/C(=O)c2sc(-c3ccccc3)nc2C)cc1 | 4.10 | > 100 |
| O=C(CCN1C(=O)/C(=C/c2ccccc2)SC1=S)Nc1ccccn1 | – | > 100 |

| SMILES | pIC50 | IC90 [µM] |
| --- | --- | --- |
| CCCCCC(=O)NNC(=S)NC(=O)c1ccc([N+](=O)[O-])cc1 | 5.49 | 5.86 |
| CCC(C)(C)c1ccc(OCCCC[n+]2ccc(C)cc2)c(C(C)(C)CC)c1 | 4.92 | 13.8 |
| c1ccc(-c2nc3c(ccc4ccccc43)[nH]2)nc1 | 4.50 | 68.5 |
| CCc1ccc2c(c1)/C(=C/C(=O)c1cccs1)C(=O)N2 | 5.59 | 4.12 |
| CC(OC(=O)c1cc(Cl)ccc1[N+](=O)[O-])C(=O)NC(C)c1ccc(F)cc1 (configuration not stated) | 4.56 | > 100 |
| CCOC(=O)c1cc(C)nc(Sc2ccc(C)cc2)c1C#N | 5.27 | 7.74 |
| CCCCCCCCNC(=O)CCNC(=O)c1ccc(C(C)(C)C)cc1 | 4.46 | 41.9 |
| CC(C)(C)c1ccc(C(=O)N2CCN(CCNC(=O)C(=O)NCc3ccc(Cl)cc3)CC2)cc1 | 4.61 | 46.7 |
| CC[N+](C)(CC)CCCCOc1ccc2c(c1)C(=O)c1cc(OCCCC[N+](C)(CC)CC)ccc1-2 | 5.77 | 2.11 |
| CN(C)CCCN1c2ccccc2Sc2ccc(Cl)cc21 | 4.33 | 60 |
| COC(=O)CSc1nnc(CNc2ccc(Cl)cc2)n1-c1ccccc1 | 4.65 | 25.3 |
| Brc1ccc(N/N=C(/N=Nc2nn[nH]n2)c2ccccc2)cc1 | 4.84 | 23.3 |
| CCc1ccc(N=C2NC(=O)/C(=C/c3cc(OC)c(O)c(OC)c3)S2)cc1 | 4.39 | > 100 |
| O=C(NCCC1=CCCCC1)c1c(O)nc2sccn2c1=O | 4.18 | > 100 |
| Nc1cc([N+](=O)[O-])cc2oc(-c3ccccc3)cc12 | – | > 100 |
| COc1ccc(-c2csc3nc(-c4ccccc4OC)oc(=O)c23)cc1 | 5.26 | 22.1 |
| CCCc1cc(=O)n2[nH]c(C)c(-c3ccc(Cl)cc3)c2n1 | 4.94 | 13.2 |
| CCc1ccc(-c2nn(-c3ccccc3)cc2CSC(=N)N)cc1 | 4.78 | 20.4 |
| CC(C)NC(=S)N/N=C/c1c[nH]c2ccccc12 | – | > 100 |
| O=C1/C(=N\S(=O)(=O)c2cccs2)C([n+]2ccc(CCCc3ccccc3)cc2)=C([O-])c2ccccc21 | 4.64 | 25.7 |
| O=C(NNC(=O)C12CC3CC(CC(C3)C1)C2)c1ccccn1 | 4.66 | 24.4 |
| CCOC(=O)c1cnc2ccc(OCC)cc2c1N1CCN(c2ccccc2)CC1 | 4.59 | 56.7 |

| SMILES | pIC50 | IC90 [µM] |
| --- | --- | --- |
| CCCOC(=O)/C(=C\c1ccc([N+](=O)[O-])o1)NC(=O)c1ccccc1 | 4.62 | > 100 |
| NC(=O)c1cccc(-c2cc(Nc3ccc(OC(F)(F)F)cc3)ncn2)c1 | 4.61 | > 25 |
| CCCCCC1CC(CC(=O)NC(=S)Nc2ccc([N+](=O)[O-])cc2)C(=O)O1 (configuration not stated) | – | > 100 |
| Cc1ccc(S(=O)(=O)NNC(=O)c2cc([N+](=O)[O-])c(C)c([N+](=O)[O-])c2)cc1 | 4.98 | 13.8 |
| COc1ccccc1NC(=O)c1ccc(NC(=O)CSc2nnnn2C)cc1 | 4.93 | 21.6 |
| CC(=O)c1ccc(N2CCC(c3cc(-c4ccc(Cl)cc4Cl)n[nH]3)CC2)c([N+](=O)[O-])c1 | 4.61 | > 100 |
| Cc1ccc(S(=O)(=O)n2ccc3c(OCCOCCNCc4ccc(F)cc4)cccc32)cc1 | 4.64 | 26 |
| CCC(=O)Oc1ccc(C(=O)Nc2ccc3c(c2)C(=O)N(C2CCCCC2)C3=O)cc1 | 4.62 | 28.3 |
| O=c1c(Cl)c2oc3ccccc3nc-2c2ccccc12 | 4.92 | 17.9 |
| COc1cc(/C=N/n2c(-c3ccc4c(c3)NC(=O)CO4)csc2=Nc2cccc(C)c2)ccc1O | 4.42 | > 100 |
| CCOC(=O)CSC1=C(C#N)C(c2ccc(C)cc2)C2=C(CCCC2=O)N1 (configuration not stated) | 4.33 | > 100 |
| Cc1ccccc1-n1c(SCC(=O)N/N=C/c2c(C)nn(-c3ccccc3)c2C)nc2ccccc2c1=O | 5.34 | 6.27 |
| O=C(CSc1nc2ncc(Br)cc2[nH]1)Nc1ccc2c(c1)OCO2 | 4.60 | > 100 |
| CC1=NN(c2ccccc2)C(=O)C1C(=O)c1ccccc1 (configuration not stated) | 4.30 | 78 |
| O=C(CSCc1ccc([N+](=O)[O-])cc1)N/N=C/c1ccncc1 | 4.95 | 26 |
| C=CCN(CC=C)C(=S)NC(=O)c1ccc(-c2ccccc2)cc1 | 4.87 | 22.4 |
| CC(C)CCNC(=O)C(c1ccc(O)cc1)N(C(=O)C1COc2ccccc2O1)c1cccc(O)c1 (configuration not stated) | 4.15 | > 100 |
| CCOC(=O)N1CCC(N2Cc3cccc(C(=O)Nc4ccc(N(CC)CC)cc4C)c3C2=O)CC1 | 4.45 | > 100 |
| Nc1c2c(nc3ccn(Cc4ccccc4)c(=O)c13)CCC2 | 5.01 | 15.9 |
| CCCOc1ccc2oc(=O)c3c(c2c1)CCCN3C(=O)CN1CCN(c2ncccn2)CC1 | 4.14 | > 100 |
